Results taken from US12097184B2, “Formulations of psilocin that have enhanced stability” (priority 2021, dated 2024).
Marks after values point to notes of the source that are not given here.

Key:
[1] = Salt screen using solutions in ethanol, appearance/colour on storage; details: light-protected; for Results at 18 h: ethanol solution, storage overnight at RT, Ar; for Result at 6 days: solvent removed, stored at RT under Ar, appearance after addition of EtOH
[2] = HPLC solution stability and stress conditions, free base versus tartrate salt
[3] = Analytical characterization of a psilocin tartrate sample (solid state); type: physicochemical; details: OM, XRPD, DSC, TGA, DVS
Excerpt: One sample of psilocin tartrate (lot 16782-15C) was submitted for optical microscopy (OM), X-ray powder diffraction (XRPD), differential scanning calorimetry (DSC), thermogravimetric analysis (TGA), dynamic vapor sorption/desorption (DVS), and ^1H NMR spectroscopy.

[4] = Dynamic vapor sorption/desorption (DVS) analysis; type: physicochemical
Experimental: The weight versus time and percent weight change versus percent relative humidity (RH) curves from the DVS analysis of psilocin tartrate lot 16782-15C is presented in FIGS. 13 and 14, respectively.
DVS analysis was carried out using a TA Instruments Q5000 Dynamic Vapor Sorption analyzer. The instrument was calibrated with standard weights and a sodium bromide standard for humidity. Approximately 12 mg of the powder sample was loaded into a metal-coated quartz pan for analysis. The sample was analyzed at 25° C. after being equilibrated to […] in 10% RH steps from 5 to 95% RH (adsorption cycle) and from 95 to 5% RH (desorption cycle). The movement from one step to the next occurred either after satisfying the equilibrium criterion of 0.01% weight change in 5 minutes or, if the equilibrium criterion was not met, after 90 minutes. The percent weight change values were calculated using Microsoft Excel® 2016.

[5] = PK evaluation of psilocin and psilocybin after IV and PO administration in rats; type: in vivo, CD rats; details: for PK values, including Cmax and AUC and Cl: IV administration; for PK values, including Cmax and AUC and Cl / PK values, including tmax, t1/2, AUC, and bioavailability: psilocin versus psilocybin; for PK values, including tmax, t1/2, AUC, and bioavailability: PO administration
Experimental: PK Evaluation of Psilocin and Psilocybin after IV and PO Administration in Rats
(§1) The study was conducted in male/female CD rats. Test articles were formulated fresh in PBS. Psilocin and Psilocybin were administered IV and PO. Plasma samples were analyzed for psilocin and psilocybin (group 2).
(§2) FIGS. 2A-2C show PK characteristics of psilocin and psilocybin after IV dosing. FIGS. 3A-3B show PK characteristics of psilocin and psilocybin after PO dosing. FIGS. 4A-4B show psilocin and psilocybin after IV and PO dose.

[6] = protected from light, over 14 days; cited from earlier work
[7] = Analytical characterization of dosing solutions used in the PK study; type: physicochemical; details: after 2 hours on the bench at room temperature, PBS, depending on the concentration
Experimental: as §1, §2
After IV administration, psilocybin is detectable in plasma for 15 minutes. PO administration of psilocin and psilocybin results in similar PK values, including tmax, t1/2, AUC, and bioavailability. […] Low stability of psilocin in aqueous solutions could be a contributing factor to observed differences. […] Stabilization of psilocin provides viable, stable formulations and lower variability of dosing solutions, resulting in a better PK, such as compared to psilocybin.

[8] = cited from earlier work
[9] = Exposure of HBr1 to AAC; type: physicochemical; details: AAC for two days
Excerpt: HBr1 was unstable upon exposure to AAC for two days and became deliquescent.

[10] = after IV administration of psilocybin; cited from earlier work
[11] = system: intestinal epithelia; details: cited from earlier work

Question: For Oxalic, which “Results at 18 h” value [1] is on record?
Answer: 0

Question: With psilocin tartrate as the compound, how does the “stability in solution compared to the free base” value ([2]; HPLC, FIG. 21) read?
Answer: improved stability

Question: What about the solid-state stability [3] of the same compound?
Answer: stable crystalline solid

Question: And the hygroscopicity [4]?
Answer: moderately hygroscopic

Question: What about the “wt. loss upon equilibration at 5% RH” value ([4]; 25° C.) of the same compound?
Answer: 0.12% wt. loss upon equilibration at 5% RH

Question: And the “wt. gain from 5 to 95% RH” value ([4]; 25° C., adsorption cycle)?
Answer: 4.64% wt. gain from 5 to 95% RH

Question: And the “wt. loss from 95 to 5% RH” value ([4]; 25° C., desorption cycle)?
Answer: 4.67% wt. loss from 95 to 5% RH

Question: What does the source list for `CN(C)CCc1c[nH]c2cccc(O)c12` [psilocin, 4-hydroxy-N,N-dimethyltryptamine]?
Answer: PK values, including Cmax and AUC and Cl [5]: almost identical; PK values, including tmax, t1/2, AUC, and bioavailability [5]: similar; Cmax ([5]; both sexes, CD, rat, PO administration of psilocin, plasma psilocin, read-out: Measured Cmax): 153 ng/mL; peak loss [6]: 50%; stability under a variety of stress conditions ([2]; FIG. 20): limited stability; degradation of dosing solutions [7]: 30%-70%; psilocin lost ([8]; biological samples with addition of 25 mM ascorbic acid): greater than 5%

Question: For Fumaric, which “Results at 18 h” value [1] is on record?
Answer: F ^c

Question: What does the source list for `O=C1O[C@H]([C@@H](O)CO)C(O)=C1O` [Ascorbic]?
Answer: Results at 18 h [1]: 0; Result at 6 days [1]: C + solid

Question: For L-Tartaric, which “Results at 18 h” value [1] is on record?
Answer: 0 ^d

Question: For Mandelic, which “Results at 18 h” value [1] is on record?
Answer: 0

Question: With Maleic as the compound, how does the “Results at 18 h” value [1] read?
Answer: 0

Question: And the “Result at 6 days” value [1]?
Answer: ↑C

Question: Which “Results at 18 h” value [1] does the source give for `O=C(O)c1ccccc1O` [Salicylic] here?
Answer: 0

Question: What about the “Result at 6 days” value [1] of the same compound?
Answer: ↑C

Question: With `Br.CN(C)CCc1c[nH]c2cccc(O)c12` [HBr1] as the compound, how does the “stability upon exposure to AAC” value [9] read?
Answer: unstable

Question: What does the source list for `O=C(O)CCC(=O)O` [Succinic]?
Answer: Results at 18 h [1]: F ^c; Result at 6 days [1]: ↑C

Question: Which “Results at 18 h” value [1] does the source give for `O=C(O)CC(=O)O` [Malonic] here?
Answer: F ^c

Question: And the “Result at 6 days” value [1]?
Answer: ↑C

Question: Which results are given for `CN(C)CCc1c[nH]c2cccc(O[C@@H]3O[C@H](C(=O)O)[C@@H](O)[C@H](O)[C@H]3O)c12` [psilocin glucuronide]?
Answer: short-term stability compared with psilocin ([8]; one week, whole blood at room temperature and deep frozen samples): better than that of psilocin; long-term stability compared with psilocin ([8]; six months, deep frozen serum and urine samples): greater long-term stability

Question: With Adipic as the compound, how does the “Result at 6 days” value [1] read?
Answer: ↑C

Question: What does the source list for `CN(C)CCc1c[nH]c2cccc(OP(=O)(O)O)c12` [psilocybin, 4-phosphoryloxy-N, N-dimethyltryptamine, reference compound]?
Answer: PK values, including Cmax and AUC and Cl [5]: almost identical; PK values, including tmax, t1/2, AUC, and bioavailability [5]: similar; time psilocybin is detectable in plasma ([5]; after IV administration): 15 min; inter-individual variability of psilocin concentrations [10]: over 3 fold; permeability [11]: not permeable
